Measured values taken from paper PMC12508063, “Chloroindazole based estrogen receptor β ligands with favorable pharmacokinetics promote functional remyelination and visual recovery” (Scientific Reports, 2025).
Where “and” joins values, the source holds several entries; their conditions need not be identical. Equal entries are not always repeated. Where two headings read alike, the source gives them in different places.

Experiments:
[1] = tested on: co-cultures of primary cortical neurons and OPCs; test: Axon myelination in co-cultures of primary cortical neurons and OPCs; assay type: cell-based, mouse; conditions: K102, K110 10 nM; Clemastine, Bazedoxifene 500 nM; 5 days
Description: Mouse and Human primary cell cultures: Primary OPC/OL culture were isolated from the cortices of postnatal day 0–1 C57BL/6J mice of both sexes, using established protocols[11],[20],[21]. Mouse OPC and Neuronal Co-cultures: Primary neuronal cultures were established in Neurobasal medium with B27 and plated on poly-L-lysine-coated coverslips. After 12 days, OPCs were isolated, counted, and added to neuronal cultures and media was replaced with neuronal and proliferation media for 3 days, then switched to maturation media that maintained both neurons and OLs. Human iPSC-derived OPCs (Tempo’s iOligo™) were expanded, cryopreserved, and later plated on Matrigel-coated coverslips. After 3 days in growth medium, cells were treated for 3 weeks with T3 containing maturation medium. Differentiation into myelin-producing OLs was assessed using O4 (OL surface marker on pre-OLs) and myelin basic protein (MBP) immunohistochemistry. […]
Immunocytochemistry and Image Analysis of cell cultures: After treatment, cells were fixed and stained for MBP and DAPI. […] Cell densities were quantified using ImageJ and normalized to control conditions. MBP-positive cells, their process extensions, and highly branched OLs were counted to assess differentiation. Co-culture images were analyzed for MBP and β3-tubulin colocalization using JACoP[22] in ImageJ, with results validated by manual quantification. […]

[2] = target: T1, full length purified human ERβ (Homo sapiens, UniProt Q92731); test: competitive ligand binding assay, tritiated estradiol as tracer; conditions: for RBA β/α ratio: ERβ/ERα relative affinity ratio
T1 construct: full length purified human ERα and ERβ
T1 sequence (Q92731 whole entry): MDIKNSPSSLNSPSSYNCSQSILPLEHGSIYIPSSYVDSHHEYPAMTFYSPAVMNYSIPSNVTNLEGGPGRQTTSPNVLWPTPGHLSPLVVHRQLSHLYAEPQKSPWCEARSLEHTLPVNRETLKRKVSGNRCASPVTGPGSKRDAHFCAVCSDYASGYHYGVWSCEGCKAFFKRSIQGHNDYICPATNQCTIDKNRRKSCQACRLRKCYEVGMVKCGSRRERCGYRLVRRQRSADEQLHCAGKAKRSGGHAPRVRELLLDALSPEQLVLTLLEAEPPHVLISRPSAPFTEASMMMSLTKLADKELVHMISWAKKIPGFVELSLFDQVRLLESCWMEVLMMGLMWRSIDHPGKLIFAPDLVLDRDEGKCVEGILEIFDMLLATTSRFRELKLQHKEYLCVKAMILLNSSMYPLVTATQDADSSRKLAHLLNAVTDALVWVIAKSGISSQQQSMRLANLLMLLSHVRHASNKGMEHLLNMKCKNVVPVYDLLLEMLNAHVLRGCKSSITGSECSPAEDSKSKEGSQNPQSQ

EAE mice [3] = test: Rotarod motor performance in EAE; assay type: in vivo, mouse; conditions: 5 mg/kg SC
Method: EAE induction and treatment: EAE was induced in 8–10-week-old wild-type C57BL/6J mice using MOG₃₅-₅₅ peptide[11],[14],[23]–[25]. Mice were scored daily using a standard clinical scale (0–5) and tested for their ability to stay on a rotarod. […] At peak disease (18–22 days post-immunization), animals were grouped into EAE+Vehicle, EAE+K102, and EAE+K110.
Rotarod Motor Performance: Mice cages were moved to the behavioral room 1 hour prior to testing. Motor performance was assessed using the Rotarod apparatus (Med Associates, Inc., St. Albans, VT) as previously performed with modifications(5, 6). Briefly, mice were placed on the rotating horizontal rod set to a speed of 3 – 30 rpm for a maximum of 300 seconds. The amount of time the mouse was able to walk on the accelerating rod was recorded. Each mouse was tested in three trials separated by 15 minute intertrial intervals. The average of the three trials was reported as a single value for each mouse. Statistical analysis was performed in GraphPad Prism 10 software using Mann-Whitney test.

[4] = target: T2, full length purified human ERα (Homo sapiens, UniProt P03372); test: competitive ligand binding assay, tritiated estradiol as tracer
T2 construct: full length purified human ERα and ERβ
T2 sequence (P03372 whole entry): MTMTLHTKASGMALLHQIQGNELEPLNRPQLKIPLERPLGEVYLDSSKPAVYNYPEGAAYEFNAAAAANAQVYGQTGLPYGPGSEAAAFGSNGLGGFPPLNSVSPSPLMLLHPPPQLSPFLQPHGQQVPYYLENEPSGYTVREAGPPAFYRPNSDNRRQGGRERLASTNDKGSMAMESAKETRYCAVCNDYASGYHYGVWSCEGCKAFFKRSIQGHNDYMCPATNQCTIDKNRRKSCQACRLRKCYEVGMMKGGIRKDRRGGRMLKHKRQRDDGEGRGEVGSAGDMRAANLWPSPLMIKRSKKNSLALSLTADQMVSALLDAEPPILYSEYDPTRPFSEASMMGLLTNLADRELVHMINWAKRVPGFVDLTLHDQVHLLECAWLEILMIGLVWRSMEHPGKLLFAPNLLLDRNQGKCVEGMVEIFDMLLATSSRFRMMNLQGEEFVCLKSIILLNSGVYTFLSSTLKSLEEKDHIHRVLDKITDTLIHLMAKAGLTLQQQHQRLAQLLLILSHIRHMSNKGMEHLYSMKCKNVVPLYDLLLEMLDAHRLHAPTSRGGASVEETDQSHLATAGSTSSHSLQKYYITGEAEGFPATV

[5] = Uterine weight and body weight in EAE mice; conditions: for Body weight / Uterine weight / Uterine weight/body weight ratio: EAE mice; for uterine weight relative to body weight: normal or EAE intact female mice
Description: The animals from Hook EAE experiment Figure 3Bii were used. […] (S6ii) The weight of the uteri removed from mice relative to total body weight along with the raw uterine weight and body weight at the end of this experiment is plotted.

EAE mice [6] = test: Visual evoked potential (VEP) in EAE; assay type: in vivo, mouse; conditions: vs vehicle-treated
Method: (§1) Optical coherence tomography, electroretinograms and visual evoked potentials: OCT was acquired using the spectral domain‐OCT (R2200 840 nm HHP; Leica, Deerfield, IL) at peak EAE disease according to previously published methods[23],[28]. Each image was taken 3 times and averaged. Automatic segmentation of retinal layers was performed using Bioptigen Diver 3.0 software (Leica Microsystems, Deerfield, IL). ERG and VEPs were measured using the HMsERG200 ([…], Henderson, NV) as previously described[23],[28]. Animals were dark adapted for a minimum of 5 h prior to recording. During acquisition, animals were anesthetized with continuous 2% isoflurane. Traces were averaged and filtered for 60 Hz noise and a low-pass filter. MATLAB was used to adjust baselines and smoothed prior to measuring ERG and VEP amplitudes and latencies.
(§2) Electroretinograms and visual evoked potentials were measured using the HMsERG200 (OcuScience, Henderson, NV) as previously described (8, 9). Animals were dark adapted for a minimum of 5 hours prior to recording. During acquisition, animals were anesthetized with continuous 2% isoflurane. Traces were averaged and filtered for 60 Hz noise and a low-pass filter. MATLAB was used to adjust baselines and smoothed prior to measuring ERG and VEP amplitudes and latencies.

[7] = tested on: CPZ demyelinating model of MS; test: Cuprizone (CPZ) diet demyelination/remyelination model, corpus callosum IHC; conditions: for CC1 + OLs compared to RM + V / CD45 immunoreactivity compared to 12wkDM / GFAP expression / myelin (MBP, PLP, and MOG staining) compared to RM + V: corpus callosum, 5 mg/kg/day, 3 wk
Description: CPZ administration and treatment: Mice were fed a diet containing 0.2% bis(cyclohexanone)oxaldihydrazone (CPZ, Teklad Custom Diets, Madison, WI) for 12 weeks, as previously described[15],[27]. A subset of mice was perfused immediately following the 12-week CPZ regimen (12wkDM). […] These mice were perfused and their brains were processed for IHC.

EAE mice [8] = test: Electroretinogram (ERG) in EAE; assay type: in vivo, mouse; conditions: for ERG A-wave and B-wave amplitude: vs vehicle-treated mice
Method: as §1, §2

[9] = for Kp uu Brain Mean / Kp uu Uterus Mean: 40 mg/kg PO; for K p,uu,brain Cmax: single dose oral PK in mouse at 40 mg/kg
Method: Plasma samples were 100% plasma or 5-fold diluted plasma; brain homogenate samples were diluted 5-fold with buffer, while uterus homogenate samples were initially diluted 5-fold and then further diluted to 20-fold. Equilibrium dialysis was performed in a 96-well plate system with wells containing 80 µL of buffer and 80 µL of the sample on opposite sides of the membrane. After incubation at 37°C for 5 hours with shaking at 180 rpm, aliquots were collected from both sides of the membrane for further analysis.
For plasma samples, 50 µL of sample was mixed with 50 µL of phosphate buffer, followed by addition of 300 µL quenching solution containing internal standards and DMSO. For 5-fold diluted plasma samples, 35 µL of sample was mixed with 35 µL of blank buffer, followed by 280 µL quenching solution. For tissue homogenate samples, 50 µL samples were mixed with 50 µL of phosphate buffer, followed by 200 µL quenching solution. All samples were vortexed for 1 minute, and centrifuged at 4,000 rpm for 15 minutes, and the supernatant collected for LC-MS/MS analysis, which was performed using an API 5500 mass spectrometer with an ACQUITY UPLC BEH 1.7 μm C18 100 Å column (2.1 mm * 50 mm) and ACE Excel 5 C4 (2.1 * 50 mm) column. Mobile phases were 0.1% formic acid in water or 5 mM NH4OAc with 0.05% formic acid in water (A) and 0.1% formic acid in acetonitrile (B). Run times were 8 minutes for plasma samples and 5 minutes for other sample types. The mass spectrometer was operated in positive electrospray ionization mode.
Free fraction (fu) and recovery were calculated using specific equations for each sample type. For plasma samples, fu (%) was calculated as (Cbuffer / Cplasma) * 100%, and recovery (%) as ((Cplasma + Cbuffer) / T0) * 100%. For 5-fold diluted plasma samples, fu,20% (%) was calculated as (Cbuffer / Cplasma) * 100%, and fu,100% (%) as fu,20% / (5 - 4 * fu,20%) * 100%. Similar equations were used for uterus and brain samples, accounting for their respective dilution factors. These calculations allowed for the determination of the free fraction of the test compound in various tissue compartments and the assessment of recovery rates.

primary mouse OPCs = test: OL differentiation in primary mouse OPC culture (MBP, DAPI); assay type: cell-based; conditions: for MBP+ OLs vs vehicle-treated wells: 10 nM; for number of MBP+ cells vs vehicle: 10 nM and 100 nM, concentration-dependent
Description: Mouse and Human primary cell cultures: Primary OPC/OL culture were isolated from the cortices of postnatal day 0–1 C57BL/6J mice of both sexes, using established protocols[11],[20],[21]. Mouse OPC and Neuronal Co-cultures: Primary neuronal cultures were established in Neurobasal medium with B27 and plated on poly-L-lysine-coated coverslips. After 12 days, OPCs were isolated, counted, and added to neuronal cultures and media was replaced with neuronal and proliferation media for 3 days, then switched to maturation media that maintained both neurons and OLs. Human iPSC-derived OPCs (Tempo’s iOligo™) were expanded, cryopreserved, and later plated on Matrigel-coated coverslips. After 3 days in growth medium, cells were treated for 3 weeks with T3 containing maturation medium. Differentiation into myelin-producing OLs was assessed using O4 (OL surface marker on pre-OLs) and myelin basic protein (MBP) immunohistochemistry. In all conditions compounds or vehicle were added to culture during differentiation for either 5 days (mouse) or 18 days (human).
Immunocytochemistry and Image Analysis of cell cultures: After treatment, cells were fixed and stained for MBP and DAPI. Coverslips were imaged using a confocal microscope at 10× and 40× objectives. Cell densities were quantified using ImageJ and normalized to control conditions. MBP-positive cells, their process extensions, and highly branched OLs were counted to assess differentiation. Co-culture images were analyzed for MBP and β3-tubulin colocalization using JACoP[22] in ImageJ, with results validated by manual quantification.
Primary OL Progenitor cells (OPC) and Neuronal Cultures: OPC and cortical neuronal cultures were prepared from the cortices of postnatal day P0-P1 C57BL/6J mice of both sexes, following established protocols (1, 2);(3). The single-cell suspension was divided into two tubes. One tube was treated with warm Neuronal Basal media, counted, and plated onto poly-L-lysine (PLL)-coated glass coverslips. The second tube was resuspended in glial growth medium, composed of DMEM-F12 supplemented with 10% fetal bovine serum, and placed in a PLL-coated culture flask for 8–10 days until confluent. Primary OPCs were then isolated by shaking and either co-cultured with primary neurons or plated onto poly-D-lysine-coated glass coverslips (three coverslips per condition, 2x10^6 cells per coverslip). The OPCs were allowed to attach for three days, followed by five days in differentiating media (DMEM-F12 with Sato media containing triiodothyronine and thyroxine) supplemented with various analogues and remyelinating compounds. For comparison, a negative control (vehicle, consisting of the media and ethanol mixture used to dissolve the analogues and remyelinating compounds) and a normal control (differentiating media alone) were included in the experiments.
Quantification of Mature OLs and Co-culture axon myelination: At the conclusion of the treatment period, cells were fixed and subjected to immunocytochemistry to evaluate myelin basic protein (MBP) expression, co-stained with the nuclear marker DAPI (shown in blue). […] Cell counting was performed using the ImageJ multipoint tool, and cell densities were calculated by dividing the counts by the image area (mm²). […]
To assess OL differentiation, the number of MBP-positive (MBP+) cells and process extensions exceeding the diameter of the cell body were quantified.

[10] = Stability in human plasma; assay type: in vitro ADME
CYP3A4 = CYP3A4 (Homo sapiens, UniProt P08684); test: CYP inhibition (midazolam and testosterone substrates); conditions: test compounds at 10 μM; for CYP Inhibition Percentage CYP3A4-M: substrate Midazolam
Sequence of CYP3A4 (P08684 whole entry): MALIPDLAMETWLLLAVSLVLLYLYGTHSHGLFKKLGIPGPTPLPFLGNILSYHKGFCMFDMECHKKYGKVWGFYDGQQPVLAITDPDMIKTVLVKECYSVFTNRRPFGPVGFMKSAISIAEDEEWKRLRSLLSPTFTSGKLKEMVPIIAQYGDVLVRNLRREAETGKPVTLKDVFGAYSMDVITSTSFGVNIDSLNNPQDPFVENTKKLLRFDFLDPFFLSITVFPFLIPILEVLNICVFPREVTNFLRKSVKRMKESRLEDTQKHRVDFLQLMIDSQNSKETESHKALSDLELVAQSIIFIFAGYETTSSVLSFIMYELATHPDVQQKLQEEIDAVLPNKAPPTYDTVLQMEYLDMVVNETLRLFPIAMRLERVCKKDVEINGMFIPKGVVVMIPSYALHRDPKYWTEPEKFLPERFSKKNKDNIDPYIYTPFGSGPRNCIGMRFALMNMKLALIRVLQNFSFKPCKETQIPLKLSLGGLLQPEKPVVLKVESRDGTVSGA

[11] = tested on: splenocytes from EAE mice; test: Splenocyte cytokine/chemokine analysis ex vivo (MOG35-55 stimulation); assay type: in vivo, mouse; conditions: K102 5 or 30 mg/kg, K110 10 or 30 mg/kg; 40 dpi
Method: Splenocyte Isolation and Cytokine Analysis: Spleens were collected from mice prior to transcardial perfusion, and splenocytes were isolated, counted, and resuspended in RPMI medium. After 1 h incubation, cells were stimulated with 25 µg/mL MOG₃₅-₅₅, and supernatants were collected 48 h later. Cytokine and chemokine levels in the supernatants, including pro- and anti-inflammatory markers as well as chemokines were analyzed by The Cytokine Core (Indianapolis, IN).
In MS and EAE, peripherally activated immune cells release inflammatory cytokines and chemokines, triggering demyelination and axonal damage. To examine how different concentrations of K102 (5 mg/kg or 30 mg/kg) (Fig. 4A) and K110 (10 mg/kg or 30 mg/kg) (Fig. 4B) influence the peripheral immune response, splenocytes were isolated from EAE mice at 40 dpi. These splenocytes were then stimulated ex vivo with MOG35-55 and analyzed for cytokine and chemokine expression.
Splenocyte Isolation and Cytokine Analysis: Spleens were removed from mice prior to transcardial perfusion. After isolation, splenocytes were counted and resuspended in RPMI. Following incubation, splenocytes were stimulated with 25 µg/ml MOG35–55 and supernatants were collected 48 hours later. Levels of the following cytokines and chemokines present in culture supernatants were sent to The Cytokine Core (Indianapolis, IN); pro-inflammatory cytokines: IFNγ, Tumor necrosis factor (TNF)α, IL-1α, IL-1β, IL-3, IL-6, IL9, IL17, Vascular endothelial growth factor (VEGF), CCL5/RANTES and macrophage colony-stimulating factor (M-CSF); anti-inflammatory cytokines: IL-5 and IL-10; chemokines: CXCL10, and CXCL1 were determined.

[12] = plasma
[13] = relative binding affinity, estradiol = 100

For `Cc1cc(O)ccc1-n1nc2ccc(O)cc2c1Cl` [Compound K102, IndCl-o-Me], the “OL processes wrapping axons” value [1] was “significant increase”, the “RBA ERβ” value [2] was 24.0 and the “RBA β/α ratio” value [2] was 65. The “ability to remain on the rotarod” value (EAE mice [3]) was “non-significant improvement”, the “RBA ERα” value [4] was 0.37 and the Body weight ([5]; group average) was 20.124. The Uterine weight ([5]; group average) was 0.055, the “Uterine weight/body weight ratio” value ([5]; group average) was 0.275 and the Body weight ([5]; individual animals) was 19.160 and 19.460 and 20.910 and 21.110 and 19.980. The Uterine weight ([5]; individual animals) was 0.0650 and 0.0330 and 0.0810 and 0.0490, the “Uterine weight/body weight ratio” value ([5]; individual animals) was 0.3392 and 0.1696 and 0.3874 and 0.2321 and 0.2452 and the “uterine weight relative to body weight” value [5] was “no increase”. For the same molecule, the “VEP P1 (or N2) amplitude” value (EAE mice [6]) was “significant increase”, the “VEP P1 latency” value (EAE mice [6]) was “reduction” and the “RM/N (remyelination with cpd. vs. normal)” value ([7]; PO) was 76%. For the same molecule, the “RM/RM-V (remyelination with cpd. vs. spontaneous remyelination without cpd)” value ([7]; PO) was 121%, the “RM/N (remyelination with cpd. vs. normal)” value ([7]; SC, 5 mg/kg) was 94% and the “RM/RM-V (remyelination with cpd. vs. spontaneous remyelination without cpd)” value ([7]; SC, 5 mg/kg) was 149%. For the same molecule, the “CC1 + OLs compared to RM + V” value [7] was “further increase”, the “CD45 immunoreactivity compared to 12wkDM” value [7] was “small but significant decrease” and the GFAP expression [7] was “remained unchanged”. For the same molecule, the “myelin (MBP, PLP, and MOG staining) compared to RM + V” value [7] was “significant increase”, the “ERG B-wave latency” value (EAE mice [8]) was “improved” and the “ERG A-wave and B-wave amplitude” value (EAE mice [8]) was “significant increase”. For the same molecule, the “Kp uu Brain Mean” value ([9]; 0.5 hr) was 0.581, the “Kp uu Uterus Mean” value ([9]; 0.5 hr) was 0.269 and the “Kp uu Brain Mean” value ([9]; 2.0 hr) was 0.333. For the same molecule, the “Kp uu Uterus Mean” value ([9]; 2.0 hr) was 0.380, the “Kp uu Brain Mean” value ([9]; 4.0 hr) was 0.629 and the “Kp uu Uterus Mean” value ([9]; 4.0 hr) was 8.681. For the same molecule, the “Kp uu Brain Mean” value ([9]; 8.0 hr) was 0.325, the “Kp uu Uterus Mean” value ([9]; 8.0 hr) was 3.086 and the “K p,uu,brain Cmax” value [9] was 0.63. The “MBP+ OLs vs vehicle-treated wells” value (primary mouse OPCs) was “significant increase”, the “number of MBP+ cells vs vehicle” value (primary mouse OPCs) was “significantly increased” and the “% Remaining at 6 hr in Human Plasma” value [10] was 89.39%. For the same molecule, the “CYP Inhibition Percentage CYP3A4-M” value (CYP3A4) was 50.95%, the “CYP Inhibition Percentage CYP3A4-T” value (CYP3A4; substrate Testosterone, 10 µM) was 77% and 76.99% and the CXCL1 production [11] was “did not affect”. For the same molecule, the “CXCL10 levels compared to vehicle” value [11] was “reduced”, the “certain anti-inflammatory cytokines compared to vehicle” value [11] was “significantly lower” and the “pro-inflammatory cytokine levels compared to vehicle” value [11] was “reduced”.

In the case of `Oc1ccc(-n2nc3ccc(O)cc3c2Cl)c(O)c1` [Compound K110, IndCl-o-OH], the “OL processes wrapping axons” value [1] is reported as “significant increase”, the “RBA β/α ratio” value [2] is reported as 48 and the “RBA ERβ” value [2, 13] is reported as 4.35. The “ability to remain on the rotarod” value (EAE mice [3]) was “non-significant improvement”, the “RBA ERα” value [4, 13] was 0.09 and the Body weight ([5]; group average) was 15.27. For the same molecule, the Uterine weight ([5]; group average) was 0.04, the “Uterine weight/body weight ratio” value ([5]; group average) was 0.26 and the Body weight ([5]; individual animals) was 14.58 and 15.48 and 15.50 and 14.68 and 16.10. For the same molecule, the Uterine weight ([5]; individual animals) was 0.044 and 0.027 and 0.034 and 0.056, the “Uterine weight/body weight ratio” value ([5]; individual animals) was 0.3018 and 0.1744 and 0.2194 and 0.3815 and 0.2112 and the “uterine weight relative to body weight” value [5] was “no increase”. For the same molecule, the “Protein Binding (% Bound) Mouse” value [12] was 91.79%, the “VEP P1 (or N2) amplitude” value (EAE mice [6]) was “did not affect” and the “VEP P1 latency” value (EAE mice [6]) was “did reduce”. The “RM/N (remyelination with cpd. vs. normal)” value ([7]; PO) was 100%, the “RM/RM-V (remyelination with cpd. vs. spontaneous remyelination without cpd)” value ([7]; PO) was 127% and the “RM/N (remyelination with cpd. vs. normal)” value ([7]; SC, 5 mg/kg) was 84%. For the same molecule, the “RM/RM-V (remyelination with cpd. vs. spontaneous remyelination without cpd)” value ([7]; SC, 5 mg/kg) was 133%, the “CC1 + OLs compared to RM + V” value [7] was “further increase” and the “CD45 immunoreactivity compared to 12wkDM” value [7] was “small but significant decrease”. For the same molecule, the GFAP expression [7] was “remained unchanged”, the “myelin (MBP, PLP, and MOG staining) compared to RM + V” value [7] was “significant increase” and the “ERG B-wave latency” value (EAE mice [8]) was “improved”. For the same molecule, the “ERG A-wave and B-wave amplitude” value (EAE mice [8]) was “significant increase”, the “Kp uu Brain Mean” value ([9]; 0.5 hr) was 0.232 and the “Kp uu Uterus Mean” value ([9]; 0.5 hr) was 0.516. The “Kp uu Brain Mean” value ([9]; 2.0 hr) was 0.802, the “Kp uu Uterus Mean” value ([9]; 2.0 hr) was 10.651 and the “Kp uu Brain Mean” value ([9]; 4.0 hr) was 0.280. For the same molecule, the “Kp uu Uterus Mean” value ([9]; 4.0 hr) was 45.849, the “Kp uu Brain Mean” value ([9]; 8.0 hr) was 0.294 and the “Kp uu Uterus Mean” value ([9]; 8.0 hr) was 6.280. The “K p,uu,brain Cmax” value ([9]; 40 mg/kg) was 0.8, the “MBP+ OLs vs vehicle-treated wells” value (primary mouse OPCs) was “significant increase” and the “number of MBP+ cells vs vehicle” value (primary mouse OPCs) was “significantly increased”. The “% Remaining at 6 hr in Human Plasma” value [10] was 105.99%, the “CYP Inhibition Percentage CYP3A4-M” value (CYP3A4) was 13.95% and the CXCL1 production [11] was “did not affect”. For the same molecule, the “CXCL10 levels compared to vehicle” value [11] was “reduced”, the “certain anti-inflammatory cytokines compared to vehicle” value [11] was “significantly lower” and the “pro-inflammatory cytokine levels compared to vehicle” value [11] was “reduced”.
